From US6974806B2, “Lipid-rich plaque inhibitors” (Takeda Pharmaceutical Company Limited, priority 2000, dated 2005)
Blank lines part the entries; values can stand above or below the compound they belong to.

Columns and labels:
[1] = test system: male apo-lipoprotein E deficient mouse; assay: Experiment 3: plaque regression, % lesion area and aortic cholesteryl ester content in apoE KO mouse; assay type: in vivo; details: arteriosclerotic diet 8 weeks
Description: (§1) [Results] The lesion (plaque) area based on the vascular internal surface area was 31% in the group fed only the normal diet after 9th week. […] Experiment 2 [Method] […] Subsequently, from the 9th week to the 12th week, Compound B (0.5% methyl cellulose suspension: at 30 mg/kg/day) was administered orally, during the period only CE-2 powder, which is a normal diet, was given. The control group was maintained with only CE-2 diet. Each animal was sacrificed by decapitation 12 weeks after initiation of the experiment, the vessel from the aortic arch to the femoral bifurcation was isolated and opened in the direction of the vascular axis, stained with oil red O (Sigma Aldrich Japan), and subjected to an image analysis similarly to Experiment 1 to calculate the % lesion area based on the entire vascular internal wall area. The vessel specimen after the image analysis was homogenized in saline, and the amount of cholesteryl ester content in the aorta was measured in accordance with the method by Hara and Radin (Lipid Extract of tissues with a low-Toxicity solvent, Anal. Biochem., 90:420-426, 1978), that is, from the aorta stained with the oil red O was extracted the lipid by a glass homogenizer with hexane:isopropyl alcohol (3:2) and centrifuged. Subsequently, the supernatant was recovered and evaporated to dryness, and then dissolved in TESIT: dioxane (1:1). From this solution, its total cholesterol content (Cholesterol C test, WAKO) and the free cholesterol content (Free Cholesterol C test, WAKO) were examined. The data obtained were corrected for the wet weight of the aorta. The cholesteryl ester content (CE) was obtained by subtracting the free cholesterol content from the total cholesterol content. Since the sample, which was extracted with hexane:isopropyl alcohol and then evaporated to dryness, contained the oil red O which interferes with the absorption wavelength for the cholesterol measurement, the cholesterol content was calculated for each sample by subtracting the blank level (absorbance of oil red O in sample). [Results]
[Method] […] The control group was maintained with only CE-2 diet. Each animal was sacrificed by decapitation 12 weeks after initiation of the experiment, the vessel from the aortic arch to the femoral bifurcation was isolated and opened in the direction of the vascular axis, stained with oil red O (Sigma Aldrich Japan), and subjected to an image analysis similarly to Experiment 1 to calculate the % lesion area based on the entire vascular internal wall area. The vessel specimen after the image analysis was homogenized in saline, and the amount of cholesteryl ester content in the aorta was measured by an enzymatic method similarly to Experiment 2 described above. [Results]

[2] = test system: male apo-lipoprotein E deficient mouse; assay: Experiment 1: plaque regression, % lesion area of aorta (oil red O) in apoE deficient mouse; assay type: in vivo; details: arteriosclerotic diet 8 weeks, then 27 mg/kg/day mixed with normal diet, 9th to 12th week, control 31%, p<0.01
Description: [Method] […] Subsequently, each of only CE-2 powder, which is a normal diet, (control group, number of animals=8) and CE-2 powder supplemented with Compound A (number of animals=8) was given ad libitum during the period from the 9th week to the 12th week. Each animal was sacrificed by decapitation 12 weeks after initiation of the experiment, the vessel from the aortic arch to the femoral bifurcation was isolated and opened in the direction of the vascular axis, stained with oil red O (Sigma Aldrich Japan), photographed closely using a medical Nikkor (NIKON), and the photograph was scanned using a scanner (GT-6000, EPSON) and the image was processed using Adobe Photoshop. Thus, the image of the vessel was trimmed and the red color was extracted and modified into a two-tone gradation.
The two-tone image was subjected to an NIH image (National Institute of Health) to count pixels, whereby calculating the % lesion area based on the entire surface area of the internal wall of the vessel.

[3] = test system: male apo-lipoprotein E deficient mouse; assay: Experiment 2: plaque regression, % lesion area and aortic cholesteryl ester content in apoE KO mouse; assay type: in vivo; details: arteriosclerotic diet 8 weeks, then normal diet with 30 mg/kg/day oral for 4 weeks
Description: as §1

Compound: N-(2,6-dimethoxyphenyl)-N′-[3-(2-methylphenyl)-6,7-dihydro-5H-indeno[5,6-b]furan-2-yl]urea [Compound B]
aortic cholesteryl ester content ([1]; apoE KO mouse, then normal diet with 10 mg/kg/day oral (b869 says) for 4 weeks, n = 10): 5.30 ± 0.37 µg/mg
% lesion area ([1]; apoE KO mouse, then normal diet with 10 mg/kg/day oral (b869 says) for 4 weeks, n = 10, P < 0.05% (Dunnett's test)): 23.3 ± 1.8 %

Compound: COc1cccc(OC)c1NC(=O)Cc1c(-c2ccccc2C)c2cc(Cl)ccc2oc1=O [Compound A, 2-[6-chloro-2-oxo-4-(2-methylphenyl)-2H-chromen-3-yl]-N-(2,6-dimethoxyphenyl)acetamide]
lesion (plaque) area based on the vascular internal surface area [2]: 15%

Compound: COc1cccc(OC)c1NC(=O)Nc1oc2cc3c(cc2c1-c1ccccc1C)CCC3 [Compound B, N-(2,6-dimethoxyphenyl)-N′-[3-(2-methylphenyl)-6,7-dihydro-5H-indeno[5,6-b]furan-2-yl]urea]
aortic cholesteryl ester content ([3]; apoE KO mice, control 9.42): 4.76 µg/mg
% lesion area ([3]; apoE KO mice, control 22.6%): 16.9%
% lesion area ([3]; apoE KO mouse, n = 4): 16.9 ± 1.6%
aortic cholesteryl ester content ([3]; apoE KO mouse, n = 4, P < 0.05% (Dunnett's test)): 4.76 ± 0.46 µg/mg

melting point: 198 to 200 °C
Compound: O=C(Cc1c(-c2ccccc2)c2cc3c(cc2oc1=O)CCC3)Nc1ccc(Cl)cc1C(F)(F)F [Compound C, N-(4-chloro-2-trifluoromethylphenyl)-2-(2-oxo-4-phenyl-2,6,7,8-tetrahydrocyclopenta[g]chromen-3-yl)acetamide]
aortic cholesteryl ester content ([1]; apoE KO mice, then normal diet oral for 4 weeks (method: 10 mg/kg/day), control 6.83): 5.3 µg/mg
% lesion area ([1]; apoE KO mice, then normal diet oral for 4 weeks (method: 10 mg/kg/day), control 31.2%): 23.3%

melting point: 232 to 237 °C
Compound: COc1cccc(C)c1NC(=O)Cc1c(-c2ccccc2)c2cc3c(cc2oc1=O)CCC3 [Example 5]

melting point: 296 to 298 °C
Compound: CC(C)c1cccc(C(C)C)c1NC(=O)Cc1c(-c2ccccc2)c2cc(CN3CCOCC3)c(Cl)cc2oc1=O [Example 73]
